Measurements: ChEMBL document CHEMBL4706505, “F10, a new camptothecin derivative, was identified as a new orally-bioavailable, potent antitumor agent” (Eur J Med Chem, 2020)
Active and inactive are the calls of the source. No cut-off for these calls is given here.

Experiments:
A549 = assay: Cytotoxicity against human A549 assessed as reduction in cell viability measured after 72 hrs by MTT assay; format: functional, cell-based; settings: A549, 72 h
HCT-116 [1] = assay: Cytotoxicity against human HCT-116 assessed as reduction in cell viability measured after 72 hrs by MTT assay; format: functional, cell-based; settings: HCT-116, 72 h
LoVo = assay: Cytotoxicity against human LoVo assessed as reduction in cell viability measured after 72 hrs by MTT assay; format: functional, cell-based
COLO 205 = assay: Cytotoxicity against human COLO 205 assessed as reduction in cell viability measured after 72 hrs by MTT assay; format: functional, cell-based; settings: COLO 205, 72 h
Raji [2] = assay: Cytotoxicity against human Raji assessed as reduction in cell viability measured after 72 hrs by MTT assay; format: functional, cell-based
HeLa = assay: Cytotoxicity against human Hela assessed as reduction in cell viability measured after 72 hrs by MTT assay; format: functional, cell-based
NCI-H1975 = assay: Cytotoxicity against human NCI-H1975 assessed as reduction in cell viability measured after 72 hrs by MTT assay; format: functional, cell-based; settings: NCI-H1975, 72 h
HCT-116 [3] = assay: Inhibition of colony formation in human HCT-116 cells at 1 nM incubated for 12 days by crystal violet dye based assay; format: functional, cell-based; settings: time 12.0 day
HCT-116 [4] = assay: Induction of apoptosis in human HCT-116 cells assessed as late apoptotic cells level at 0.001 uM incubated for 24 hrs by Annexin V-FITC/PI staining based flow cytometry (reference value: 0.07%); format: functional
HCT-116 [5] = assay: Induction of apoptosis in human HCT-116 cells assessed as early apoptotic cells level at 0.001 uM incubated for 24 hrs by Annexin V-FITC/PI staining based flow cytometry (reference value: 0.17%); format: functional
HCT-116 [6] = assay: Induction of apoptosis in human HCT-116 cells assessed as late apoptotic cells level at 0.03 uM incubated for 24 hrs by Annexin V-FITC/PI staining based flow cytometry (reference value: 0.07%); format: functional
HCT-116 [7] = assay: Induction of apoptosis in human HCT-116 cells assessed as early apoptotic cells level at 0.03 uM incubated for 24 hrs by Annexin V-FITC/PI staining based flow cytometry (reference value: 0.17%); format: functional
HCT-116 [8] = assay: Induction of apoptosis in human HCT-116 cells assessed as late apoptotic cells level at 1 uM incubated for 24 hrs by Annexin V-FITC/PI staining based flow cytometry (reference value: 0.07%); format: functional
HCT-116 [9] = assay: Induction of apoptosis in human HCT-116 cells assessed as early apoptotic cells level at 1 uM incubated for 24 hrs by Annexin V-FITC/PI staining based flow cytometry (reference value: 0.17%); format: functional
[10] = Solubility of compound in phosphate buffer at pH 4.5 incubated for 24 hrs under shaking condition by HPLC analysis; format: physicochemical
[11] = Solubility of compound in phosphate buffer at pH 7.4 incubated for 24 hrs under shaking condition by HPLC analysis; format: physicochemical
[12] = Solubility of compound in water incubated for 24 hrs under shaking condition by HPLC analysis; format: physicochemical
[13] = Toxicity in nude BALB/c mouse xenografted with human HCT-116 cells assessed as reduction in body weight at 20 mg/kg, po dosed once the every 2 day for upto 24 days; format: organism-based; settings: in vivo, time <=24 day
[14] = Toxicity in NPG mouse xenografted with human Raji cells assessed as body weight loss at 5 mg/kg, ip measured on the 1 day; format: organism-based; settings: in vivo, 24 h
[15] = Toxicity in NPG mouse xenografted with human Raji cells assessed as body weight loss at 5 mg/kg, ip measured after 5 day; format: organism-based; settings: in vivo, 120 h
Raji [16] = assay: Antitumor activity against NPG mouse xenografted with human Raji cell assessed as tumor growth inhibition at 5 mg/kg, ip measured after 5 day; format: functional; settings: 120 h, read-out: TGI

Row | SMILES | IC50 (A549) | IC50 (HCT-116 [1]) | IC50 (LoVo) | IC50 (COLO 205) | IC50 (HeLa) | IC50 (NCI-H1975) | other results
1 | CCc1c2c(nc3ccc(O)cc13)-c1cc3c(c(=O)n1C2)COC(=O)[C@]3(O)CC [7-ETHYL-10-HYDROXYCAMPTOTHECIN] | 18 nM | 10 nM | 301 nM | 220 nM | 145 nM | 810 nM | IC50 (Raji [2]): 5 nM; inhibition (HCT-116 [3]): Active; Activity (HCT-116 [4]): 2.81%; Activity (HCT-116 [5]): 2.91%; Activity (HCT-116 [6]): 8.29%; Activity (HCT-116 [7]): 3.11%; Activity (HCT-116 [8]): 7.12%; Activity (HCT-116 [9]): 24.42%; solubility thermodynamic at 24 h [10]: < 0.25 µg/mL; solubility thermodynamic at 24 h [11]: < 0.25 µg/mL; solubility thermodynamic at 24 h [12]: < 0.25 µg/mL
2 | CCN(CC)CCNC(=O)COc1ccc2nc3c(cc2c1)Cn1c-3cc2c(c1=O)COC(=O)[C@]2(O)CC | > 10000 nM | > 10000 nM | > 10000 nM | > 10000 nM | > 10000 nM | > 10000 nM | 
3 | CC[C@@]1(O)C(=O)OCc2c1cc1n(c2=O)Cc2cc3cc(OCC(=O)N4CCCC4)ccc3nc2-1 | 80 nM | 81 nM | 880 nM | 2830 nM | 1370 nM | 2810 nM | 
4 | CC[C@@]1(O)C(=O)OCc2c1cc1n(c2=O)Cc2cc3cc(OCC(=O)N(C)CCN(C)C)ccc3nc2-1 | > 10000 nM | > 10000 nM | > 10000 nM | > 10000 nM | > 10000 nM | > 10000 nM | 
5 | CCc1c2c(nc3ccc(OCC(=O)N4CCCC4)cc13)-c1cc3c(c(=O)n1C2)COC(=O)[C@]3(O)CC | 37 nM | 12 nM | 181 nM | 250 nM | 350 nM | 630 nM | IC50 (Raji [2]): 6 nM
6 | CC[C@@]1(O)C(=O)OCc2c1cc1n(c2=O)Cc2cc3cc(OCC(=O)N4CCN(C)CC4)ccc3nc2-1 | > 10000 nM | > 10000 nM | > 10000 nM | > 10000 nM | 2570 nM | > 10000 nM | 
7 | CCc1c2c(nc3ccc(OC(=O)N4CCC(N5CCCCC5)CC4)cc13)-c1cc3c(c(=O)n1C2)COC(=O)[C@]3(O)CC.Cl |  |  |  |  |  |  | Activity [13]: Toxic; Activity [14]: 24.2 g; Activity [15]: 23.5 g; inhibition in vivo at 5 mg/kg (Raji [16]): 7.1%
8 | CC[C@@]1(O)C(=O)OCc2c1cc1n(c2=O)Cc2cc3cc(OCC(=O)NCCN(C)C)ccc3nc2-1 | > 10000 nM | > 10000 nM | > 10000 nM | > 10000 nM | > 10000 nM | > 10000 nM | 
9 | CC[C@@]1(O)C(=O)OCc2c1cc1n(c2=O)Cc2cc3cc(O)ccc3nc2-1 [HYDROXYCAMPTOTHECIN] | 80 nM | 21 nM | 330 nM |  |  |  | 
10 | CC[C@@]1(O)C(=O)OCc2c1cc1n(c2=O)Cc2cc3cc(OCC(=O)N4CCCCC4)ccc3nc2-1 | 55 nM | 17 nM | 272 nM | 540 nM | 380 nM | 1380 nM | 
11 | CC[C@@]1(O)C(=O)OCc2c1cc1n(c2=O)Cc2cc3cc(OCC(=O)N4CCC(N(C)C)CC4)ccc3nc2-1 | > 10000 nM | > 10000 nM | > 10000 nM | > 10000 nM | > 10000 nM | > 10000 nM | 
12 | CCN(CC)C(=O)COc1ccc2nc3c(cc2c1)Cn1c-3cc2c(c1=O)COC(=O)[C@]2(O)CC | 261 nM | 101 nM | 933 nM | 1520 nM | 1010 nM | 1960 nM | 
